Assay results: ChEMBL document CHEMBL4251583, “Quinoxaline: An insight into the recent pharmacological advances” (Eur J Med Chem, 2018)
pIC50: −log10 of the molar value. In brackets after ≈: the same amount, converted by molar mass.

Legend:
[1] = Selectivity index, ratio of IC50 for human KB cells to IC50 for Plasmodium falciparum K1 infected in human erythrocytes; assay type: toxicity, cell-based; settings: read-out: Ratio IC50
Plasmodium falciparum [2] = assay: Antiplasmodial activity against Plasmodium falciparum K1 infected in human erythrocytes preincubated for 24 hrs followed by [3H]hypoxanthine addition measured after 24 hrs by scintillation counting; assay type: functional, organism-based
Plasmodium falciparum [3] = assay: Antiplasmodial activity against chloroquine-resistant Plasmodium falciparum FCR-3 infected in human erythrocytes after 3 days by [3H]-hypoxanthine incorporation assay; assay type: functional, organism-based; settings: FCR-3/Gambia
[4] = Therapeutic index, ratio of CC50 for human MT4 cells to EC50 for HIV1 infected in human MT4 cells; assay type: toxicity, cell-based; settings: uninfected versus HIV1-infected, read-out: Ratio EC50
Rattus norvegicus [5] = assay: Antiinflammatory activity in carrageenan-induced paw edema Wistar rat model assessed as protection against edema formation up to 2000 mg/kg, po measured 3 hrs post dose relative to control; assay type: functional
Salmonella typhimurium = assay: Antibacterial activity against […] ATCC 14028 after 18 hrs by broth microdilution method; assay type: functional, Salmonella enterica subsp. enterica serovar Typhimurium; settings: Salmonella enterica, ATCC 14028, 18 h
[6] = tested on: Mycobacterium tuberculosis; assay: Antitubercular activity against Mycobacterium tuberculosis H37Rv after 5 days by MABA method; assay type: functional; settings: 120 h
Escherichia coli = assay: Antibacterial activity against Escherichia coli ATCC 25922 after 18 hrs by broth microdilution method; assay type: functional; settings: ATCC 25922, 18 h
Pseudomonas aeruginosa = assay: Antibacterial activity against Pseudomonas aeruginosa ATCC 27853 after 18 hrs by broth microdilution method; assay type: functional; settings: ATCC 27853, 18 h
Proteus vulgaris = assay: Antibacterial activity against Proteus vulgaris ATCC 29905 after 18 hrs by broth microdilution method; assay type: functional; settings: ATCC 29905, 18 h
Staphylococcus aureus = assay: Antibacterial activity against Staphylococcus aureus ATCC 25923 after 18 hrs by broth microdilution method; assay type: functional; settings: ATCC 25923, 18 h
IMR-32 = assay: Antiproliferative activity against human IMR32 cells after 72 hrs by MTT assay; assay type: functional, cell-based; settings: IMR-32, 72 h
SK-N-SH = assay: Antiproliferative activity against human SK-N-SH cells after 72 hrs by MTT assay; assay type: functional, cell-based
WI-38 = assay: Cytotoxicity against human WI38 cells assessed as cell growth inhibition after 48 hrs by SRB assay; assay type: cell-based; settings: WI-38, 48 h
Rattus norvegicus [7] = assay: Antiinflammatory activity in carrageenan-induced paw edema rat model assessed as inhibition of carrageenan-induced edema relative to control; assay type: functional
Rattus norvegicus [8] = assay: Antiinflammatory activity in carrageenan-induced paw edema Fisher 344 rat model assessed as protection against carrageenan-induced edema at 0.01 mmol/kg, ip administered simultaneously with carrageenan measured at 3.5 hrs post carrageenan injection relative to control; assay type: functional; settings: Fisher 344, ip

With `N#Cc1c(-c2ccco2)[n+]([O-])c2ccccc2[n+]1[O-]` the selectivity ratio [1] was 10.3 and the pIC50 (Plasmodium falciparum [2]) was 6.20.

`COc1ccc2c(c1)[n+]([O-])c(C#N)c(-c1ccco1)[n+]2[O-]` gave a pIC50 (Plasmodium falciparum [2]) of 6.55.

Work on `COc1cc(/C=C/C(=O)c2c(C)[n+]([O-])c3ccccc3[n+]2[O-])cc(OC)c1OC` yielded a pIC50 (Plasmodium falciparum [3]) of 5.21.

In the case of `Cc1cc2ncc(=O)n(CC(O)CO)c2cc1C` (stereo not given), the selectivity ratio [4] was 73.

For `Cc1nc2ccccc2nc1CCC(=O)N/N=C/c1c[nH]c2ccccc12`, the “inhibition (INH)” value (Rattus norvegicus [5]) was 55.3 - 65.9%.

Molecule `O=c1[nH]c2ccccc2[nH]/c1=N/N=C/[C@@H]1O[C@H](CO)[C@@H](O)[C@H](O)[C@H]1O` has an MIC (Salmonella typhimurium) of 2.07 µM (≈ 0.725 µg/mL), an MIC [6] of 0.65 µM (≈ 0.228 µg/mL) and an MIC (Escherichia coli) of 2.07 µM (≈ 0.725 µg/mL). It also gave an MIC (Pseudomonas aeruginosa) of 2.07 µM (≈ 0.725 µg/mL), an MIC (Proteus vulgaris) of 2.07 µM (≈ 0.725 µg/mL) and an MIC (Staphylococcus aureus) of 2.07 µM (≈ 0.725 µg/mL).

`O=[N+]([O-])c1ccc(C2OC2c2cnc3ccccc3n2)o1` (stereo not given) showed a pIC50 (IMR-32) of 5.30 and a pIC50 (SK-N-SH) of 5.41.

For `[N-]=[N+]=Nc1nc2cc(Br)ccc2nc1Cl`, the IC50 (WI-38) was greater than 100 µg/mL.

In the case of `COc1ccc(/C=N/N=c2/[nH]c3ccccc3nc2CCC(=O)O)cc1`, the “inhibition (INH)” value (Rattus norvegicus [7]) was 66.04%.

`O=c1[nH]c2ccccc2[nH]/c1=N/N=C/[C@@H]1O[C@H](CO)[C@@H](O[C@H]2O[C@H](CO)[C@@H](O)[C@H](O)[C@H]2O)[C@H](O)[C@H]1O` showed an MIC (Salmonella typhimurium) of 2.07 µM (≈ 1.06 µg/mL), an MIC [6] of 0.65 µM (≈ 0.333 µg/mL) and an MIC (Escherichia coli) of 2.07 µM (≈ 1.06 µg/mL). For the same molecule, the MIC (Pseudomonas aeruginosa) was 2.07 µM (≈ 1.06 µg/mL), the MIC (Proteus vulgaris) was 2.07 µM (≈ 1.06 µg/mL) and the MIC (Staphylococcus aureus) was 2.07 µM (≈ 1.06 µg/mL).

For `Cc1nc2ccccc2nc1CCC(=O)N/N=C/c1ccc(Cl)cc1`, the “inhibition (INH)” value (Rattus norvegicus [5]) was 55.3 - 65.9%.

`COc1ccc2nc(C)c(-c3cc(-c4cc(OC)c(OC)c(OC)c4)nc(N)n3)nc2c1` gave an inhibition in vivo at 10 µmol/kg (Rattus norvegicus [8]) of 41%.

In the case of `Brc1ccc2nc(N3CCCCC3)c3nnnn3c2c1`, the IC50 (WI-38) was greater than 100 µg/mL.

Molecule `Cc1c(C(=O)/C=C/c2ccc3ccccc3c2)[n+]([O-])c2ccccc2[n+]1[O-]` has a pIC50 (Plasmodium falciparum [3]) of 5.24.

With `Cc1nc2ccccc2nc1CCC(=O)N/N=C/c1ccc(N(C)C)cc1` the “inhibition (INH)” value (Rattus norvegicus [5]) was 55.3 - 65.9%.

In the case of `COc1ccc(/C=N/N=c2/[nH]c3ccc(C)cc3nc2CCC(=O)O)cc1`, the “inhibition (INH)” value (Rattus norvegicus [7]) was 69.85%.

With `O=c1[nH]c2ccccc2[nH]/c1=N/N=C/[C@@H]1O[C@H](CO)[C@@H](O[C@@H]2O[C@H](CO)[C@H](O)[C@H](O)[C@H]2O)[C@H](O)[C@H]1O` the MIC (Salmonella typhimurium) was 2.07 µM (≈ 1.06 µg/mL), the MIC [6] was 0.65 µM (≈ 0.333 µg/mL) and the MIC (Escherichia coli) was 2.07 µM (≈ 1.06 µg/mL). For the same molecule, the MIC (Pseudomonas aeruginosa) was 2.07 µM (≈ 1.06 µg/mL), the MIC (Proteus vulgaris) was 2.07 µM (≈ 1.06 µg/mL) and the MIC (Staphylococcus aureus) was 2.07 µM (≈ 1.06 µg/mL).

For `Cc1nc2ccccc2nc1CCC(=O)N/N=C/c1ccco1`, the “inhibition (INH)” value (Rattus norvegicus [5]) was 55.3 - 65.9%.

With `O=c1[nH]c2ccccc2[nH]/c1=N/N=C/[C@@H]1O[C@H](CO)[C@@H](O)[C@H](O)[C@@H]1O` the MIC (Salmonella typhimurium) was 2.07 µM (≈ 0.725 µg/mL), the MIC [6] was 0.65 µM (≈ 0.228 µg/mL) and the MIC (Escherichia coli) was 2.07 µM (≈ 0.725 µg/mL). The MIC (Pseudomonas aeruginosa) was 2.07 µM (≈ 0.725 µg/mL), the MIC (Proteus vulgaris) was 2.07 µM (≈ 0.725 µg/mL) and the MIC (Staphylococcus aureus) was 2.07 µM (≈ 0.725 µg/mL).

For `Cc1nc2ccccc2nc1CCC(=O)N/N=C/c1ccc(O)cc1`, the “inhibition (INH)” value (Rattus norvegicus [5]) was 55.3 - 65.9%.

In the case of `Cc1nc2ccccc2nc1CCC(=O)N/N=C/c1ccccc1`, the “inhibition (INH)” value (Rattus norvegicus [5]) was 55.3 - 65.9%.

`Brc1ccc2c(c1)n1nnnc1c1nnnn21` gave an IC50 (WI-38) greater than 100 µg/mL.

With `Brc1ccc2nc(N3CCOCC3)c3nnnn3c2c1` the IC50 (WI-38) was greater than 100 µg/mL.

For `CC(C)Cc1ccc(C(C)C(=O)O)cc1` (stereo not given) [IBUPROFEN], the “inhibition (INH)” value (Rattus norvegicus [5]) was 73.5%.

With `COc1ccc2c(c1)c(CC(=O)O)c(C)n2C(=O)c1ccc(Cl)cc1` [INDOMETHACIN] the “inhibition (INH)” value (Rattus norvegicus [7]) was 79.5% and the inhibition in vivo at 10 µmol/kg (Rattus norvegicus [8]) was 47%.

Molecule `c1ccc2nccnc2c1` [QUINOXALINE] has a pIC50 (IMR-32) of 4.89 and a pIC50 (SK-N-SH) of 5.34.
